Data set [1] relates to human TNF, human whole blood stimulated with LPS. As to the kind of experiment: TNF inhibition: human whole blood assay. The data set is classed as cell-based. To be noted: for TNF Inhibition-Human Whole Blood Assay: Table 9, percentage, concentration not given. As to the method:
TNF Inhibition: Human Whole Blood Assay
Human peripheral blood is obtained in heparinized tubes. A 190 μL aliquot of blood is placed in each well of a 96 well u-bottom plate. […] After one hour of incubation at 37° C., […] of lipopolysaccharide (Salmonella typhosa, Sigma) in phosphate buffered saline is added resulting in a final concentration of […]. After four to five hours of incubation at 37° C., the supernatants are harvested and assayed at 1:10 or 1:20 dilutions for human TNF using ELISA.
In vitro human whole blood assay data for measuring the ability of the compounds to inhibit TNF production in human whole blood stimulated with LPS are shown in the column identified as: • “Human Whole Blood IC50, μM or %Inhib@conc. (μM)”
(§1) In vitro p38 alpha kinase inhibitory data are shown in the column identified as “p38 alpha IC50 (μM)”. In vitro human whole blood assay data for measuring the ability of the compounds to inhibit TNF production in human whole blood stimulated with LPS are shown in the column identified as: “HWB IC50 (μM)”. In vivo assessment of the ability of the compounds to inhibit LPS-stimulated TNF-release in the rat is shown in the column identified as: “ratLPS/%Inh@dose(mg/kg)”, wherein the dose is in milligram per kilogram (mg/kg) administered by oral gavage, 4 hours before LPS challenge.

Data set [2] deals with TNF-α, rats challenged with LPS. As to the kind of experiment: Rat assay, LPS-stimulated TNF release. In kind it is in vivo. To be noted: for inhibition in vivo at 3 mg/kg / Rat LPS Model % inhib @ dose @ predose time: 3 mpk oral gavage, −4 h before LPS challenge; for inhibition in vivo at 3 mg/kg: read-out: Rat LPS Model % inhib @ dose @ predose time. On the procedure:
The efficacy of the novel compounds in blocking the production of TNF also was evaluated using a model based on rats challenged with LPS. Male Harlen Lewis rats [Sprague Dawley Co.] were used in this model. Each rat weighed approximately 300 g and was fasted overnight prior to testing. Compound administration was typically by oral gavage (although intraperitoneal, subcutaneous and intravenous administration were also used in a few instances) 1 to 24 hours prior to the LPS challenge. Rats were administered 30 μg/kg LPS [salmonella typhosa, Sigma Co.] intravenously via the tail vein. Blood was collected via heart puncture 1 hour after the LPS challenge. Serum samples were stored at −20° C. until quantitative analysis of TNF-α by Enzyme Linked-Immuno-Sorbent Assay (“ELISA”) [Biosource]. Additional details of the assay are set forth in Perretti, M., et al., Br. J. Pharmacol. (1993), 110, 868-874, which is incorporated by reference in this application.
In vivo assessment of the ability of the compounds to inhibit LPS-stimulated TNF release in the rat is shown in the column identified as: • “Rat LPS Model, % TNF inhib dose @ predose time” wherein in the dose is milligram per kilogram (mpk) administered by oral gavage and the predose time indicates the number of hours before LPS challenge when the compound is administered.
In vivo assessment of the ability of the compounds to inhibit LPS-stimulated TNF release in the rat is shown in the column identified as: • “Rat LPS Model % Inhibition@dose@predose time” wherein the dose is milligram per kilogram (mpk) administered by oral gavage and the predose time indicates the number of hours before LPS challenge when the compound is administered.
as §1

The target of the next data set is T1, human p38 kinase alpha (Homo sapiens, UniProt Q16539).
T1 construct: GST (N, cleaved yes); made in house; host or cells: E. coli DH10B
As to the kind of experiment: p38 kinase in vitro assay, phosphorylation of biotinylated PHAS-I with 32P-ATP. In kind it is biochemical. To be noted: for IC50: read-out: P38 alpha kinase IC50; for P38 alpha kinase % inhib @ conc. (uM): @ 1.0 uM.

Data set [3] deals with TNF alpha, BALB/c mice injected with LPS. As to the kind of experiment: Mouse model of LPS-induced TNF alpha production. In kind it is in vivo. To be noted: 30 mpk oral gavage; for inhibition in vivo at 30 mg/kg: Mus musculus, read-out: Mouse LPS Model % TNF inhib @ dose @ predose time. On the procedure:
Mouse Model of LPS-induced TNF Alpha Production:
TNF alpha was induced in 10-12 week old BALB/c female mice by tail vein injection with 100 ng lipopolysaccharide (from S. Typhosa) in 0.2 ml saline. One hour later mice were bled from the retroorbital sinus and TNF concentrations in serum from clotted blood were quantified by ELISA.
Efficacy was determined at each time point as percent inhibition of serum TNF levels relative to LPS injected mice that received vehicle only.
In vivo assessment of the ability of the compounds to inhibit LPS-stimulated TNP release in the mouse is shown in the column identified as: • “Mouse LPS Model, % TNF inhib @ dose @ predose time” wherein in the dose is milligram per kilogram (mpk) administered by oral gavage and the predose time indicates the number of hours before LPS challenge when the compound is administered.

For data set [4], the system named is TNF-α, U937 human histiocytic lymphoma cell line. As to the kind of experiment: LPS stimulation of TNF production by U937 cells. To be noted: human U937 cells stimulated with LPS, read-out: U937 Cell IC50. The data set is classed as cell-based. An outline of the steps:
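U937 cells differentiated 24 h with 20 ng/ml PMA, rested 24-48 h, used at 2 million cells/ml. Compounds in 0.1% DMSO final; LPS (E. coli, 100 ng/ml final) stimulation for 4 h at 37° C. Released TNF-α measured by ELISA; IC50 (μM).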

[5] abbreviates: in vitro P38-alpha kinase inhibition.
[6] abbreviates: Homo sapiens, U-937, TNF production.

Where a name gives a salt, the structure may show the parent alone. Read-outs that look alike come from different tables or passages of the source.

T1 sequence (Q16539 whole entry): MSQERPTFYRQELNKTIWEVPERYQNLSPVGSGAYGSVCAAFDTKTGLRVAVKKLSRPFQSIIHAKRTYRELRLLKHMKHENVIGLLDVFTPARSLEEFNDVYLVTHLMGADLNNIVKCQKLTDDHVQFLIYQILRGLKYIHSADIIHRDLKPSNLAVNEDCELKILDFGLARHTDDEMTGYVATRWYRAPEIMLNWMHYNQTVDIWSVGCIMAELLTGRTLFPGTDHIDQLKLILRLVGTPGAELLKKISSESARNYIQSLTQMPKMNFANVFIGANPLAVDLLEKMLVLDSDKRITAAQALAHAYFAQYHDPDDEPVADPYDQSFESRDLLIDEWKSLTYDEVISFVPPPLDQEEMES

For the compound “5-[2-(1,1-DIMETHYL)AMINOETHYL]-4-(4-PYRIDYL)-3-(4-FLUOROPHENYL)PYRAZOLE [Example C-114]”, the IC50 in data set [1] (TNF production, human whole blood stimulated with LPS, read-out: Human Whole Blood IC50, μM or % Inhib @ conc. (μM): IC50) stood at 1.73 µM.

For the compound `Clc1ccc(-c2n[nH]c(SC3CCNCC3)c2-c2ccncc2)cc1` [A-459 (salt)], the IC50 in data set [1] (Table 10, read-out: TNF Inhibition-Human Whole Blood Assay) was determined as 0.28 µM.

For orientation: melting point means the temperature, or range, at which the solid turns liquid. Regarding `CCn1nc(C)c(-c2ccncc2)c1-c1ccc(Cl)cc1` [Example A-207, 4-[3-(4-chlorophenyl)-2-ethyl-5-methyl-1H-pyrazol-4-yl]pyridine], the melting point worked out at 153.46 °C.

Take `Clc1ccc(-c2n[nH]cc2-c2ccncn2)cc1` [Example A-310, 4-[3-(4-chlorophenyl)-1H-pyrazol-4-yl]pyrimidine]: the melting point came out at 218.17 °C.

Turning to `COc1ccc(-n2nc(-c3ccc(F)cc3)c(-c3ccncc3)c2-c2cnc[nH]2)cc1` [Example A-323, 4-[3-(4-fluorophenyl)-5-(1H-imidazol-4-yl)-1-(4-methoxyphenyl)-1H-pyrazol-4-yl]pyridine], the melting point was 124 to 126 °C. The inhibition in vivo at 30 mg/kg in data set [2] (Rattus norvegicus, po, read-out: Rat LPS Assay % Inhibition, Table 8, dose 30.0 mg/kg) was 40%.

Consider `Fc1ccc(-c2n[nH]cc2-c2ccnc(NCCN3CCCCC3)c2)cc1` [Example A-375, 4-[3-(4-fluorophenyl)-1H-pyrazol-4-yl]-N-[2-(1-piperidinyl)ethyl]-2-pyridinamine], for which the “TNF Inhibition-Human Whole Blood Assay” value in data set [1] amounted to 28%.

For the compound `O=C1CCN(c2[nH]nc(-c3ccc(F)cc3)c2-c2ccncc2)CC1` [Example A-378, 1-[5-(4-fluorophenyl)-4-(4-pyridinyl)-1H-pyrazol-3-yl]-4-piperidinone], the “TNF Inhibition-Human Whole Blood Assay” value in data set [1] was 49%.

As for `OC1CCN(c2[nH]nc(-c3ccc(F)cc3)c2-c2ccncc2)CC1` [Example A-379, 1-[5-(4-fluorophenyl)-4-(4-pyridinyl)-1H-pyrazol-3-yl]-4-piperidinol], the “TNF Inhibition-Human Whole Blood Assay” value in data set [1] worked out at 44%.

For the compound `Fc1ccc(-c2n[nH]c(N3CCC4(CC3)OCCO4)c2-c2ccncc2)cc1` [Example A-380, 8-[5-(4-fluorophenyl)-4-(4-pyridinyl)-1H-pyrazol-3-yl]-1,4-dioxa-8-azaspiro[4.5]decane], the “TNF Inhibition-Human Whole Blood Assay” value in data set [1] came out at 32%.

Compound `O=C(C(=C1SCS1)c1ccncc1)c1ccc(OC(F)(F)F)cc1` [Example A-395] came in with a melting point of 182.6 to 183 °C.

As for `N#Cc1ccc(C(=O)C(=C2SCS2)c2ccncc2)cc1` [Example A-396], the melting point lay in the range of 193.3 to 193.4 °C.

In turn, `Clc1ccc(-c2n[nH]c(SCCN3CCCC3)c2-c2ccncc2)cc1` [Example A-460] yielded a melting point of 189.9 to 190.1 °C.

The compound `O=C(O)C(Cc1cnc[nH]1)Sc1[nH]nc(-c2ccc(Cl)cc2)c1-c1ccncc1` (centres unmarked) [Example A-471] gave a melting point of 163 to 165 °C.

`Clc1ccc(-c2n[nH]c(SCCOC3CCCCO3)c2-c2ccncc2)cc1` (centres unmarked) [Example A-474]: the IC50 in data set [1] (Homo sapiens, Table 10, read-out: TNF Inhibition-Human Whole Blood Assay) stood at 1.47 µM.

Consider `COc1ccc(S(=O)(=O)NC(C)c2[nH]nc(-c3ccc(F)cc3)c2-c2ccncc2)cc1` (centres unmarked) [Example B-0574], for which the inhibition in vivo at 3 mg/kg in data set [2] (Rattus norvegicus, po) was found to be 37%.

`Cc1ccc(S(=O)(=O)NC(C)c2[nH]nc(-c3ccc(F)cc3)c2-c2ccncc2)cc1` (centres unmarked) [Example B-0576]: the IC50 on human p38 kinase alpha (setting [5]) came out at 68 nM. The inhibition in vivo at 3 mg/kg in data set [2] (Rattus norvegicus, po) came to 65%.

As for `CC(NC(=O)C(C)(C)C)c1[nH]nc(-c2ccc(F)cc2)c1-c1ccncc1` (centres unmarked) [Example B-0601], the IC50 on human p38 kinase alpha (setting [5]) amounted to 89 nM. Further, the inhibition in vivo at 3 mg/kg in data set [2] (Rattus norvegicus, po) was determined as 43%.

As to `CC(NS(=O)(=O)c1cccc(Cl)c1)c1[nH]nc(-c2ccc(F)cc2)c1-c1ccncc1` (centres unmarked) [Example B-0639], at human p38 kinase alpha (setting [5]), the IC50 was determined as 51 nM. Moreover, the inhibition in vivo at 3 mg/kg in data set [2] (Rattus norvegicus, po) came to 50%.

On to `CC(NS(=O)(=O)c1ccc(Cl)s1)c1[nH]nc(-c2ccc(F)cc2)c1-c1ccncc1` (centres unmarked) [Example B-0650], for which the IC50 at human p38 kinase alpha (setting [5]) worked out at 6 nM. The inhibition in vivo at 3 mg/kg in data set [2] (Rattus norvegicus, po) came out at 8%.

On to `O=C(NCCCc1[nH]nc(-c2ccc(F)cc2)c1-c1ccncc1)c1ccc(F)cc1` [Example B-1161], for which, at human p38 kinase alpha, the “P38 alpha kinase % inhib @ conc. (uM)” value was found to be 64.0% 2. Moreover, the “Mouse LPS Model % TNF inhib @ dose @ predose time” value in data set [3] (−6 h before LPS challenge) turned out to be 40% @ 30 mpk @ −6 h. Besides, the “Rat LPS Model % inhib @ dose @ predose time” value in data set [2] is 45% @ 3 mpk @ −4 h.

Consider `C=CCOC(=O)NCCCc1[nH]nc(-c2ccc(F)cc2)c1-c1ccncc1` [Example B-1162], for which, at human p38 kinase alpha, the “P38 alpha kinase % inhib @ conc. (uM)” value turned out to be 79.0% @. Further, the IC50 in data set [4] (TNF production) was found to be 590 nM. Besides, the “Mouse LPS Model % TNF inhib @ dose @ predose time” value in data set [3] (−6 h before LPS challenge) came out at 40% @ 30 mpk @ −6 h.

For the compound `O=C(NCCCc1[nH]nc(-c2ccc(F)cc2)c1-c1ccncc1)C1CC1` [Example B-1166], the “P38 alpha kinase % inhib @ conc. (uM)” value at human p38 kinase alpha amounted to 77.0% @. Also, the “Mouse LPS Model % TNF inhib @ dose @ predose time” value in data set [3] (−6 h before LPS challenge) is 50% @ 30 mpk @ −6 h. Besides, the “Rat LPS Model % inhib @ dose @ predose time” value in data set [2] is on record as 50% @ 3 mpk @ −4 h.

Take `O=C(c1ccc(F)cc1)N1CCC(c2[nH]nc(-c3ccc(F)cc3)c2-c2ccncc2)CC1` [Example B-1360]: the inhibition in vivo at 3 mg/kg in data set [2] (Rattus norvegicus, po) came out at 54%.

With `CC(=O)N1CCC(c2[nH]nc(-c3ccc(F)cc3)c2-c2ccncc2)CC1` [Example B-1363], at human p38 kinase alpha (in vitro P38-alpha kinase), the IC50 came out at 9 nM. Moreover, in data set [3] (−6 h before LPS challenge), the “Mouse LPS Model % TNF inhib @ dose @ predose time” value is recorded as 51.0% @ 30 pmk @. In addition, in data set [2], the “Rat LPS Model % inhib @ dose @ predose time” value was 53% @ 3 mpk @ −4 h.

On to `O=C(C1CC1)N1CCC(c2[nH]nc(-c3ccc(F)cc3)c2-c2ccncc2)CC1` [Example B-1364], for which the IC50 stood at 9 nM on human p38 kinase alpha (in vitro P38-alpha kinase) and 270 nM in data set [4] (setting [6]). For the same compound, the inhibition in vivo at 30 mg/kg in data set [3] (−6 h before LPS challenge) came out at 53%. The inhibition in vivo at 3 mg/kg in data set [2] (Rattus norvegicus, po) was 17%.

In the case of `O=C(c1ccccc1F)N1CCC(c2[nH]nc(-c3ccc(F)cc3)c2-c2ccncc2)CC1` [Example B-1372], the figures for the IC50 (on human p38 kinase alpha (in vitro P38-alpha kinase); in data set [4] (setting [6])) were < 100 nM and 410 nM, respectively. Besides, the inhibition in vivo at 30 mg/kg in data set [3] (predose time not printed ("@ -")) came out at 48%.

Values taken from patent publication US6979686B1, “Substituted pyrazoles as p38 kinase inhibitors” (Pharmacia Corporation, priority 2001, dated 2005).
